Assay results reported in US12522594B2, “2-heteroaryl-3-oxo-2,3-dihydropyridazine-4-carboxamides for the treatment of cancer” (Deutsches Krebsforschungszentrum, priority 2017, dated 2026).

How the values were obtained:
AHR [1] = biological target: T1, AHR (Homo sapiens, UniProt P35869); test: In vitro assay 1: antagonism in human cell line (transactivation assay, U87 cells prestimulated with kynurenic acid, DRE firefly luciferase reporter); assay type: cell-based; design: host or cells: U87 glioblastoma cells, stably transfected with DRE firefly luciferase and renilla reporter constructs; conditions: 150 uM kynurenic acid, 20 hours, read-out: Assay 1: AHR-luc Hum Antagonism IC50
T1 sequence (P35869 11-848): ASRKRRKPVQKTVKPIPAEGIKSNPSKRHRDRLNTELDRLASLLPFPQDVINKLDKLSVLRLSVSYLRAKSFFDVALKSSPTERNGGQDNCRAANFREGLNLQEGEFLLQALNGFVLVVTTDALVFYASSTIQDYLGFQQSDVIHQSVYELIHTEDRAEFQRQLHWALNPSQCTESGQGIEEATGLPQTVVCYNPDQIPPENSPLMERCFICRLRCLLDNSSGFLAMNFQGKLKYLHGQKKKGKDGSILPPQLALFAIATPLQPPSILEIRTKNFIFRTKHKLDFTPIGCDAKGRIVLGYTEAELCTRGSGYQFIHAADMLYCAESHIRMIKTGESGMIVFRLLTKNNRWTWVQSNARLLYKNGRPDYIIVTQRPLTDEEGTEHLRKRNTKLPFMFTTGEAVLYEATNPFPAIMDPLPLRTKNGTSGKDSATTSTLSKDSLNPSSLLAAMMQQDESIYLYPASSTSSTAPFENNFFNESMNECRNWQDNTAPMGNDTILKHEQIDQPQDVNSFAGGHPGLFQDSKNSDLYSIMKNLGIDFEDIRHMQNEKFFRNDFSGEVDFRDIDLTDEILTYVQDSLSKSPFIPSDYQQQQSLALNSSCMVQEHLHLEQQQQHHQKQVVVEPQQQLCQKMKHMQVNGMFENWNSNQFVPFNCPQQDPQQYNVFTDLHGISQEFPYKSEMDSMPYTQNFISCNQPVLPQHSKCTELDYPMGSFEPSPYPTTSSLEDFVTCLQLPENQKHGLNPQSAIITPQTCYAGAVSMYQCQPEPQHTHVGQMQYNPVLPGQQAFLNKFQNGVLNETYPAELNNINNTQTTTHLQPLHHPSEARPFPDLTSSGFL
Method in brief: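 Antagonism measured after kynurenic acid prestimulation in U87 cells that express AHR endogenously and stably harbor a firefly luciferase gene under DRE control plus a constitutive renilla construct. Positive and negative controls served for normalization.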

AHR [2] = biological target: T1, AHR; test: In vitro assay 2: agonism in human cell line (transactivation assay, U87 cells, DRE firefly luciferase reporter); assay type: cell-based; design: host or cells: U87 glioblastoma cells, stably transfected with DRE firefly luciferase and renilla reporter constructs; conditions: no kynurenic acid, 20 hours, read-out: Assay 2: AHR-luc Hum Agonism IC50
Method in brief: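 Agonist readout: DRE firefly luciferase, with constitutive renilla reporter, in stably transfected U87 cells expressing AHR endogenously. Normalization used positive control (300 uM kynurenic acid) and negative control.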

IC50 (AHR [1])	IC50 (AHR [2])	Compound
6110 nM	> 20000 nM	O=C(N[C@H]1COC[C@H]1O)c1cc(-c2ccc(C(F)F)nc2)nn(-c2cccnc2)c1=O (relative stereo) [Example 182, 6-[6-(Difluoromethyl)pyridin-3-yl]-N-[(cis)-4-hydroxytetrahydrofuran-3-yl]-3-oxo-2-(pyridin-3-yl)-2,3-dihydropyridazine-4-carboxamide]
1.63 nM	> 20000 nM	O=C(NC(CO)C1CC1)c1cc(-c2ccc(C(F)(F)F)cc2)nn(-c2cccnc2)c1=O (racemic) [Example 109, N-[(1RS)-1-Cyclopropyl-2-hydroxyethyl]-3-oxo-2-(pyridin-3-yl)-6-[4-(trifluoromethyl)phenyl]-2,3-dihydropyridazine-4-carboxamide]
20 nM	> 20000 nM	Cn1cc(-n2nc(-c3ccc(OC(F)(F)F)cc3)cc(C(=O)NCC(C)(C)O)c2=O)cn1 [Example 59, N-(2-Hydroxy-2-methylpropyl)-2-(1-methyl-1H-pyrazol-4-yl)-3-oxo-6-[4-(trifluoromethoxy)phenyl]-2,3-dihydropyridazine-4-carboxamide]
9.54 nM	> 20000 nM	O=C(NCC(O)C(F)F)c1cc(-c2ccc(C(F)(F)F)cc2)nn(-c2cccnc2)c1=O (racemic) [Example 101, N-[(2RS)-3,3-Difluoro-2-hydroxypropyl]-3-oxo-2-(pyridin-3-yl)-6-[4-(trifluoromethyl)phenyl]-2,3-dihydropyridazine-4-carboxamide]
20.8 nM	> 20000 nM	CC(C)[C@@H](CO)NC(=O)c1cc(-c2ccc(C(F)(F)F)nc2)nn(-c2cncc(F)c2)c1=O [Example 337, 2-(5-Fluoropyridin-3-yl)-N-[(2S)-1-hydroxy-3-methylbutan-2-yl]-3-oxo-6-[6-(trifluoromethyl)pyridin-3-yl]-2,3-dihydropyridazine-4-carboxamide]
602 nM	> 20000 nM	C[C@@H](CO)NC(=O)c1cc(-c2ccc(CF)cc2)nn(-c2cccnc2)c1=O [Example 285, 6-[4-(Fluoromethyl)phenyl]-N-[(2S)-1-hydroxypropan-2-yl]-3-oxo-2-(pyridin-3-yl)-2,3-dihydropyridazine-4-carboxamide]
430 nM	> 20000 nM	Cn1cc(-n2nc(-c3ccc(CF)cc3)cc(C(=O)NC[C@H](O)C(F)(F)F)c2=O)cn1 [Example 283, 6-[4-(Fluoromethyl)phenyl]-2-(1-methyl-1H-pyrazol-4-yl)-3-oxo-N-[(2S)-3,3,3-trifluoro-2-hydroxypropyl]-2,3-dihydropyridazine-4-carboxamide]
4.3 nM	> 20000 nM	Cn1cc(-n2nc(-c3ccc(C(F)(F)F)cc3)cc(C(=O)NCC(C)(C)O)c2=O)cn1 [Example 67, N-(2-Hydroxy-2-methylpropyl)-2-(1-methyl-1H-pyrazol-4-yl)-3-oxo-6-[4-(trifluoromethyl)phenyl]-2,3-dihydropyridazine-4-carboxamide]
41.9 nM	> 20000 nM	O=C(NCC1(O)CC1)c1cc(-c2ccc(Cl)cc2)nn(-c2cccnc2)c1=O [Example 263, 6-(4-Chlorophenyl)-N-[(1-hydroxycyclopropyl)methyl]-3-oxo-2-(pyridin-3-yl)-2,3-dihydropyridazine-4-carboxamide]
163 nM	> 20000 nM	O=C(NC(CO)CO)c1cc(-c2ccc(Cl)cc2)nn(-c2cncc(F)c2)c1=O [Example 84, 6-(4-Chlorophenyl)-N-(1,3-dihydroxypropan-2-yl)-2-(5-fluoropyridin-3-yl)-3-oxo-2,3-dihydropyridazine-4-carboxamide]
349 nM	> 20000 nM	Cc1cncc(-n2nc(-c3ccc(Cl)cc3)cc(C(=O)N[C@@H](C)CO)c2=O)c1 [Example 304, 6-(4-Chlorophenyl)-N-[(2S)-1-hydroxypropan-2-yl]-2-(5-methylpyridin-3-yl)-3-oxo-2,3-dihydropyridazine-4-carboxamide]
